Experimental data from US8367695B2, “Condensed tetrahydroquinoline derivative and use thereof for medical purposes” (Mitsubishi Tanabe Pharma Corporation, priority 2007, dated 2013).

Target: T1, human recombinant progesterone receptor-B (PRB) (Homo sapiens, UniProt P06401)
T1 construct: purchased Invitrogen (Carlsbad, Calif.)
T1 sequence (P06401 1-933): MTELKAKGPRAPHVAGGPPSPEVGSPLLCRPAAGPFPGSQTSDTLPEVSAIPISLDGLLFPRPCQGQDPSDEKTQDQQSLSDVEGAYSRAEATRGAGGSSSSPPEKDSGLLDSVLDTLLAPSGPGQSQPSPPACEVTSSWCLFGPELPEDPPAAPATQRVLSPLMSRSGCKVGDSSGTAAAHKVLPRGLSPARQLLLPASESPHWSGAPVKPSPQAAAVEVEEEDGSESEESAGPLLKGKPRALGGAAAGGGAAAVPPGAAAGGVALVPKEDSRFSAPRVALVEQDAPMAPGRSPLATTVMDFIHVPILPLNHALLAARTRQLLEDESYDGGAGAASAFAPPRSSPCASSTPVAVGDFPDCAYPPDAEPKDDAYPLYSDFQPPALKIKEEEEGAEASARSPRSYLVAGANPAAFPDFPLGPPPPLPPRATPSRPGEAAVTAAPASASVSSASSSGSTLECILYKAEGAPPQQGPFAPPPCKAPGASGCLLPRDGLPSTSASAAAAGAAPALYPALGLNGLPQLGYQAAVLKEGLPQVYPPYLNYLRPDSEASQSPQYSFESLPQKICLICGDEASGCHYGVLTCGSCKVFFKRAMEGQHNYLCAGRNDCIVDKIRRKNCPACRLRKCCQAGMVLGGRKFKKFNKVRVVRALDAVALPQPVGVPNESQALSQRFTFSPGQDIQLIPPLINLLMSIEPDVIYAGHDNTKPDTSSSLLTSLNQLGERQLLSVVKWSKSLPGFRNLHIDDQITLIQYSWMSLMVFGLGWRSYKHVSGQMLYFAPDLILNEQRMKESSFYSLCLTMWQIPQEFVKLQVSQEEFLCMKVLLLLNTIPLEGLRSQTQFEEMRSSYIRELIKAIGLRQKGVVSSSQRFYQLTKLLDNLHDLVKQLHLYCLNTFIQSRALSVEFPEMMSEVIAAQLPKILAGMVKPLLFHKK
Test: Radioactive ligand binding test, PRB cytosol, [3H]-Prog
Details: [3H]-Prog about 5 nM, PRB cytosol, 4° C.; Cheng-Prusoff, Kd about 3.5 nM; read-out: PR (Ki: nM)
Text: Radioactive Ligand Binding Test Using Cytosols of Human Glucocorticoids Receptor, Progesterone Receptor and Mineralocorticoid Receptor
The procedures described in Neuroimmunomodulation (1994, 1, p. 66-73) and Invest. Opthalmol. Vis. Sci. (1996, 37, p. 805-813) were modified and used. In brief, cytosol preparations of human recombinant glucocorticoids receptor (GR) and human recombinant progesterone receptor-B (PRB) were purchased from Invitrogen (Carlsbad, Calif.), and a cytosol preparation of human recombinant mineralocorticoid receptor (MR) was prepared by our company (Yokohama, JP). MR cDNA was cloned into a baculovirus expression vector and expressed in insect cell Sf9. The procedures described in J. Biol. Chem. (1991, 266, p. 18072-18081), Proc. Natl. Acad. Sci. USA (1991, 88, p. 10681-10685) and Bac-to-Bac (registered trade mark) Baculovirus Expression Systems technical manual (Invitrogen) were partly modified and used as the procedures for MR gene cloning up to preparation of recombinant receptor cytosol. [^3H]-Dexamethasone (Dex, specific activity 91.0 Ci/mmol) was purchased from GE Healthcare (Buckinghamshire, UK), and [^3H]-progesterone (Prog, specific activity 103 Ci/mmol) and [3H]-aldosterone (Ald, specific activity 87.9 Ci/mmol) were each purchased from PerkinElmer (Boston, Mass.). Polypropylene round-bottomed 96 well plate was obtained from ABgene (Epsom, UK). Dimethyl Sulfoxide (DMSO) and hydrochloric acid were obtained from Kanto Chemical (TOKYO, JP). Trizma Base (Tris), Bovine Serum Albumin (BSA) and Sodium tungstate dihydrate were obtained from Sigma Chemicals (St. Louis, Mo.). Dithiothreitol (DTT) and Dextran 70 were obtained from GE Healthcare (Buckinghamshire, UK). Glycerol was obtained from Junsei Chemical (TOKYO, JP). Norit® “SX-II” was obtained from Wako Pure Chemical Industries, Ltd. (Osaka, JP). MeltiLex™, A, Printed Filtermat A and Sample Bag were obtained from PerkinElmer (Boston, Mass.).
As a buffer for GR binding assay, 25 mM Tris-HCl (4° C., pH 7.4)/1 mM EDTA·2Na/1 mM DTT/0.1% BSA was prepared and used. As buffers for PRB and MR binding assay, 10 mM Tris-HCl (4° C., pH 7.4)/1 mM DTT/0.1% BSA/10% glycerol and 20 mM Tris-HCl (4° C., pH 7.4)/1 mM EDTA·2Na/10% glycerol/20 mM sodium tungstate were respectively prepared and used. As dextran-coated charcoal (DCC) for B/F separation, 0.75% Dextran 70/0.75% Norit® SX-II/10 mM Tris-HCl (4° C., pH 7.4) was prepared and used.
Compound storage solutions (5-20 mM) were prepared using DMSO. The storage solutions were diluted with DMSO to 0.1 mM (for GR) and 0.3 mM (for PRB and MR), and further diluted 20-fold with distilled water to give solutions. Then, the preparations were diluted to each concentration with 5% DMSO solution. 1% DMSO was present at the time of the binding assay.
In the case of PRB binding assay, [^3H]-Prog (about 5 nM), PRB cytosol (concentration of function receptor: about 4 pmol/mL), a test compound and a binding buffer were mixed in a total volume of 50 μL, and the mixture was stood at 4° C. for 30 min or longer. A specific binding was defined to be the difference in the [^3H]-Prog binding between the presence and the absence of 1 μM unlabeled Prog.
After the reaction, 50 μL of DCC was added to each well and blended. Thereafter, the mixture was stood at 4° C. for 10 min. The plate was applied to high-speed cooling centrifuge under the conditions of 4° C., 2000 rpm, 5 min to perform B/F separation. A given amount of the supernatant was recovered, which was spotted on Filtermat A of 96 well format (PerkinElmer) and rapidly dried at a high temperature. Then, solid scintillator MeltiLex A (PerkinElmer) was melted on Filtermat A. The mixture was placed in a Sample Bag (PerkinElmer), and the level of radioactivity was measured by plate reader 1450 Micro Beta TRILUX (PerkinElmer).
Measurement of Inhibition Constant (Ki)

Row | SMILES | Ki [nM]
1 | Cc1onc(CO)c1-c1cc2c(c3ccoc13)NC(C)(C)C(=O)C2(C)C [Example 94, 6-(3-hydroxymethyl-5-methylisoxazol-4-yl)-2,2,4,4-tetramethyl-1,2,3,4-tetrahydro-furo[2,3-h]quinolin-3-one] | > 1250
2 | CC1(C)Nc2c(cc(-c3cccc4nccn34)c3occc23)C(C)(C)C1=O [Example 98, 6-(imidazo[1,2-a]pyridin-5-yl)-2,2,4,4-tetramethyl-1,2,3,4-tetrahydro-furo[2,3-h]quinolin-3-one] | 1050
3 | CC1(C)Nc2c(cc(-c3cncc4nccn34)c3occc23)C(C)(C)C1=O [Example 100, 6-(imidazo[1,2-a]pyrazin-5-yl)-2,2,4,4-tetramethyl-1,2,3,4-tetrahydro-furo[2,3-h]quinolin-3-one] | > 1250
4 | CC1(C)Nc2c(cc(-c3cccc4ncccc34)c3occc23)C(C)(C)C1=O [Example 101, 2,2,4,4-tetramethyl-6-(quinolin-5-yl)-1,2,3,4-tetrahydro-furo [2,3-h]quinolin-3-one] | 1220
5 | CC1(C)Nc2c(cc(-c3ccnc4ncccc34)c3occc23)C(C)(C)C1=O [Example 102, 2,2,4,4-tetramethyl-6-([1,8]naphthyridin-4-yl)-1,2,3,4-tetrahydro-furo[2,3-h]quinolin-3-one] | > 1250
6 | Cc1noc(C)c1-c1cc2c(c3c1C(=O)CC3)NC(C)(C)C(=O)C2(C)C [Example 104, 6-(3,5-dimethylisoxazol-4-yl)-2,2,4,4-tetramethyl-2,3,4,7,8,9-hexahydro-1H-cyclopenta[h]quinoline-3,7-dione] | > 1250
